From patent publication US20210163489A1, “PYRAZOLOPYRIMIDINE DERIVATIVES AND THE COMPOSITIONS AND METHODS OF TREATMENT REGARDING THE SAME” (NysnoBio Ireland DAC, priority 2016, published 2021)

Molecular target: T1, Parkin (Homo sapiens, UniProt O60260)
T1 construct: Enzyme 3: Parkin-His tagged 203 μM (10.5 mg/ml)
Assay: Parkin pUB auto-ubiquitinylation assay (TR-FRET)
Format: biochemical
Settings: activation of pUb activated Parkin; read-out: Auto-ubiq EC50 (μM) [Example 3]
From the text: A Parkin pUB Auto-ubiquitinylation Assay is used to evaluate a compound's potency to activate Parkin's ability to Auto-ubiquitinylate itself.
The principle of this assay is that the E3 Ligase Parkin catalyzes the transfer of Ubiquitin to target proteins, but also has the ability to auto-ubiquitinylate itself. The phospho-Ubiquition (pUb) added to the assay alters the Parkin to a state where small molecule activators can enable the Parkin to auto-ubiquitinylate though the E1-E2 cascade reaction. The use of a Eu cryptate Ubiquition and anti 6His-d2 that binds to the His tagged Parkin will give a signal when the Eu cryptate Ubiquition is auto-ubiquitinylate onto the Parkin which can be monitored by TR-FRET.
Similar to the Activity-based probe assay in Example 2, screening for activating compounds can be distinguished from the controls as follows:
100% activation signal=pUb activated Parkin+40 nM control activator in DMSO. 0% activation signal=pUb activated Parkin+DMSO only. Parkin activators can be identified by an increase of the 0% activation signal TR-FRET signal.
• Assay Plate: White 384 well plate (Corning 3572) • Enzyme 1: E1 (Ubiquitin-activating enzyme/UBE1 Boston Biochem E-305) • Enzyme 2: E2 (UBcH7/Ube2L3 Boston Biochem E2-640) • Enzyme 3: Parkin-His tagged 203 μM (10.5 mg/ml) • pUb: Phospho-Ubiquitin (S65) (Boston Biochem U-102) • Eu Cryptate Reagent: Ubiquitin Eu (CisBio 61UBIKLA) • DMSO: DMSO (Sigma-34869-2.5L) • Reaction Buffer: 50 mM HEPES, 50 mM NaCl, 1 mM MgCl2, 0.005% Tween 20, 0.1% • PF-127 (Fisher Scientific 50-310-494), pH 8.5 • Detection Buffer: 50 mM HEPES, 50 mM NaCl, 800 mM KF, 5 mM EDTA, 0.005% • Tween 20, 0.1% PF-127, pH 8.5 • Detection Reagent Z: 13.4 nM Anti-6His-d2 in detection buffer • d2 Reagent: Anti-6His-d2 (CisBio 61HISDLA)
Enzyme Reaction (15 min Pre-Incubation with Parkin, pUb and Activator Only) • Parkin: 196 nM • pUb: 196 nM • DMSO: 1% DMSO • E1: 5 nM • E2: 50 nM • Ubiquitin Eu: 8.8 nM • Reaction time: 120 minutes • Temperature: 22° C. • Total volume: 10 μl reaction
Take 10 μl of Enzyme Reaction above and add 10 μl detection Reagent Z under the following conditions:
Reaction time: 60 minutes
1) Load assay plate wells with 4.9 μl 400.0 nM Parkin, 400 nM pUb in reaction buffer by use of Eppendorf 12-channel pipette. 2) Deliver 0.1 μl 100× activator candidates in DMSO by use of Echo 555 compound dispenser. Highest 100× concentration=100 μm and then twofold dilutions. Add each compound and control in duplicate wells. 3) Spin 1000 rpm, 2 minutes, at room temp. 4) Incubate plate for 15 minutes at room temp. 5) Add 5 μl 10 nM E1, 100 nM E2, 17.6 nM Ubiquitin Eu and 2 mM ATP in Reaction Buffer by use of Eppendorf 12-channel pipette. 6) Spin 1000 rpm, 2 minutes, at room temp. 7) Incubate plate for 120 minutes at room temp. 8) Add 10 μl 13.4 nM anti his d2 in detection buffer by use of Eppendorf 12-channel pipette. 9) Spin 1000 rpm, 2 minutes, at room temp. 10) Incubate plate for 120 minutes at room temp. 11) Read plates on Perkin Elmer Envision instrument with the following parameters:
LANCE dual laser protocol loaded into the Envision® software
Top Mirror: LANCE/DELFIA Duel/Bias (Bar code 446) Emission Filter: APC 665 EM (Bar code 205) 2nd Emission Filter: Europium 615 EM (Bar code 203) Read […] (channel 1) and 615 nm (channel 2) wavelengths on Envision®
Data Analysis: The Data can be read in CSV files. There are two tables in those CSV files, which are the values of 655 nm (channel 1) and 615 nm (channel 2) wavelengths respectively. The data is converted to an HTRF Ratio=(Channel 1/Channel 2)*10,000
The average of all the 0 uM controls (DMSO only)=BKGD (Background—0% activation). Subtract BKGD from each HTRF Ratio value=HTRF-BKGD. The average of all the 100 uM control activator in DMSO controls=Max (100% activation). The following equation is then used to calculate % Activation for each well/candidate as follows: % Activation=(HTRF−BKGD/Max)*100.
XLFIT5 model 205 was applied for the data analysis. […]

T1 sequence (O60260 whole entry, other chains not shown): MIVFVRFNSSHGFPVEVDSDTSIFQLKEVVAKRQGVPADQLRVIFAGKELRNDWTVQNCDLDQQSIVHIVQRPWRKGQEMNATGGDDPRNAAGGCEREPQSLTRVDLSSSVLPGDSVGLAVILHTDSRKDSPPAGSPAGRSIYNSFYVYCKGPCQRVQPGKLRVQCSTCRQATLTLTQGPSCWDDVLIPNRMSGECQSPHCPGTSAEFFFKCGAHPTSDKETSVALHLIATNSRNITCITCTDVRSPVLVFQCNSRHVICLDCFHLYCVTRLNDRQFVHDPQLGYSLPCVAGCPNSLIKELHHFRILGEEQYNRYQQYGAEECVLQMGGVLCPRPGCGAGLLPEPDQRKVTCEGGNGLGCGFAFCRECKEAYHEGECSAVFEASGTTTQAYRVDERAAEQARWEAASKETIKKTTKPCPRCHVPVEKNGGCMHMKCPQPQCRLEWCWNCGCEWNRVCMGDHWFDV

Row | Compound | EC50 [µM]
1 | Cc1nc2c(-c3ccccc3)c(C)nn2c(O)c1Cc1ccncc1 [Compound X, 2,5-dimethyl-3-phenyl-6-(4-pyridylmethyl)pyrazolo[1,5-a]pyrimidin-7-ol] | > 40
2 | Cc1nc2c(-c3ccccn3)c(C)nn2c(S)c1Cc1ccccc1 [HH] | > 40
3 | CC(C)(C)c1cc(O)n2ncc(-c3ccccc3)c2n1 [J] | 13.4
4 | Cc1nc2c(-c3ccccc3)c(C)nn2c(S)c1Cc1ccncc1 [Compound AA, 2,5-dimethyl-3-phenyl-6-(4-pyridylmethyl)pyrazolo[1,5-a]pyrimidine-7-thiol] | > 40
5 | Cc1nc2c(C(=O)N(C)C)c(C)nn2c(O)c1Cc1ccccc1 [EE] | > 40
6 | Cc1ccc(-c2cnn3c(S)cc(C)nc23)cc1 [TT] | > 40
7 | Cc1cc(O)n2ncc(-c3ccc(F)cc3)c2n1 [PP] | > 40
8 | COc1ccc(-c2cnn3c(O)cc(C)nc23)cc1 [Compound J3] | > 40
9 | Cc1cc(S)n2nc(C)c(-c3ccccc3)c2n1 [O] | > 40
